According to patent US12492181B2, “Gem-disubstituted piperidine melanocortin subtype-2 receptor (MC2R) antagonists and uses thereof” (Crinetics Pharmaceuticals, Inc., priority 2019, dated 2025):

Biological target: T1, hMC2 receptor (crude hMC2R membranes from CRE-bla-CHO-K1 cells stably expressing hMC2 receptor and hMRAP accessory protein) (Homo sapiens, UniProt Q01718)
T1 construct: crude membrane fractions
Assay: hMC2 membrane binding assay ([125I]ACTH (1-39) Tyr23, SPA)
Conditions: displacement of 0.2 nM [125I]ACTH (1-39) Tyr23 from hMC2R membranes, 1.5 hours at room temperature; read-out: MC2R binding potency
Experimental: Crude membrane fractions are prepared from CRE-bla-CHO-K1 cells stably expressing hMC2 receptor and hMRAP accessory protein (Thermo Fisher). The cells are grown to 85-100% confluence on standard tissue culture dishes in GlutaMax DMEM growth media (Gibco) with following additives: 10% dialyzed FBS (Gemini), 0.1 mM NEAA (Gibco), 25 mM HEPES (Gibco), 5 μg/mL blasticidin (Goldbio), 100 μg/mL zeocin (Invitrogen), 600 μg/mL hygromycin (Goldbio). To prepare membranes, cells are scraped and collected in 1× Dulbecco's phosphate buffered saline (Corning) and then pelleted at 1000 RPM's. The cell pellet is reconstituted in membrane preparation buffer (20 mM HEPES, 6 mM MgCl2 and 1 mM EGTA, protease inhibitor tablets (Pierce) adjusted to pH 7.4), homogenized using a dounce homogenizer, and the resulting membrane fraction is pelleted by centrifugation at 12,000 RPM's. The membrane pellet is resuspended in membrane preparation buffer, snap freezed and stored at −80° C. for later use.
Binding Assay for hMC2 Antagonists Protocol:
The hMC2 membrane binding assay utilizes the following components: radiolabel [^125I]ACTH (1-39) Tyr23 (PerkinElmer), wheatgerm agglutinin coated PVT SPA beads (PerkinElmer), crude hMC2R membranes, and compounds. Briefly hMC2R membranes are incubated with SPA beads in binding assay buffer (50 mM HEPES, 5 mM MgCl2, 1 mM CaCl2), 0.20% BSA, protease inhibitor tablets (Pierce) adjusted to pH7.4) prior to assay initiation. […] Assay plates are read using a Top Count NXT and Ki values for compounds are determined using a GraphPad Prism 6 non-linear regression analysis.

T1 sequence (Q01718 whole entry): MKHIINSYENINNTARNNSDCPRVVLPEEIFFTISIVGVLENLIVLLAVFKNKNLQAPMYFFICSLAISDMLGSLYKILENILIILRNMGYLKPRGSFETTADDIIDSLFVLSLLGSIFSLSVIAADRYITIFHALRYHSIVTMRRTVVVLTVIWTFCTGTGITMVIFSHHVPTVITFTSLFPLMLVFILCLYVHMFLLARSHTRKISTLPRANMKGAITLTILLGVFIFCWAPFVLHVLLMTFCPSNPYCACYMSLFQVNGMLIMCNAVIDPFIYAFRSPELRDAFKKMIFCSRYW
T1 sequence (Q8TCY5 whole entry partner): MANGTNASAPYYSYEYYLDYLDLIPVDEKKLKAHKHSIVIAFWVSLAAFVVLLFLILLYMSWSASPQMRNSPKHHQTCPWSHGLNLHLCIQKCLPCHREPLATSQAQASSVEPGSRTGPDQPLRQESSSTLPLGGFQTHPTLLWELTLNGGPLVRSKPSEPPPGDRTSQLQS

`COc1ccccc1-c1ncc(C2(C(=O)N[C@@H]3CCN(C)C3)CCN(c3ccc(C(F)(F)F)cc3C#N)CC2)cc1F` [Compound 1-126, 1-[2-cyano-4-(trifluoromethyl)phenyl]-4-[5-fluoro-6-(2-methoxyphenyl)pyridin-3-yl]-N-[(3R)-1-methylpyrrolidin-3-yl]piperidine-4-carboxamide] was tested, and the Ki was under 10 nM.
Compound `CNCCNC(=O)C1(c2ccc(-c3cccnc3OC)nc2)CCN(c2ccc(C(F)(F)F)cc2F)CC1` [Compound 1-272, 1-[2-fluoro-4-(trifluoromethyl)phenyl]-4-{2′-methoxy-[2,3′-bipyridin]-5-yl}-N-[2-(methylamino)ethyl]piperidine-4-carboxamide] has a Ki of under 10 nM.
Work on `COc1ncccc1-c1ncc(C2(C(=O)NCCN(C)C)CCN(c3ccc(C(F)(F)F)cc3Cl)CC2)cc1F` [Compound 1-302, 1-[2-chloro-4-(trifluoromethyl)phenyl]-N-[2-(dimethylamino)ethyl]-4-{3-fluoro-2′-methoxy-[2,3′-bipyridin]-5-yl}piperidine-4-carboxamide] yielded a Ki of under 10 nM.
For `CCOc1ncccc1-c1ccc(C2(C(=O)NCCN(C)C)CCN(c3ccc(C(F)(F)F)cc3C#N)CC2)cn1` [Compound 1-15, 1-[2-cyano-4-(trifluoromethyl)phenyl]-N-[2-(dimethylamino)ethyl]-4-{2′-ethoxy-[2,3′-bipyridin]-5-yl}piperidine-4-carboxamide], the Ki was 10 to 100 nM.
For `CCOc1ncccc1-c1ccc(C2(NCCNC)CCN(c3ccc(C(F)(F)F)cc3C#N)CC2)cn1` [Compound 2-15, 2-(4-{2′-ethoxy-[2,3′-bipyridin]-5-yl}-4-{[2-(methylamino)ethyl]amino}piperidin-1-yl)-5-(trifluoromethyl)benzonitrile], the Ki was 10 to 100 nM.
`CN1CC[C@H](NC(=O)C2(c3cnc(-c4cccn4C)c(F)c3)CCN(c3ccc(C(F)(F)F)cc3C#N)CC2)C1` [Compound 1-161, 1-[2-cyano-4-(trifluoromethyl)phenyl]-4-[5-fluoro-6-(1-methyl-1H-pyrrol-2-yl)pyridin-3-yl]-N-[(3S)-1-methylpyrrolidin-3-yl]piperidine-4-carboxamide] gave a Ki of under 10 nM.
“1-{1-[2-cyano-4-(trifluoromethyl)phenyl]-4-[6-(1-methyl-1H-pyrrol-2-yl)pyridin-3-yl]piperidin-4-yl}-3-[(3R)-1-methylpyrrolidin-3-yl]urea [Compound 2-48]” was tested, and the Ki was under 10 nM.
With `CN1CC[C@@H](NC(=O)C2(c3ccc(-c4cccc(F)c4O)nc3)CCN(c3ccc(C(F)(F)F)cc3C#N)CC2)C1` [Compound 1-129, 1-[2-cyano-4-(trifluoromethyl)phenyl]-4-[6-(3-fluoro-2-hydroxyphenyl)pyridin-3-yl]-N-[(3R)-1-methylpyrrolidin-3-yl]piperidine-4-carboxamide] the Ki was 10 to 100 nM.
With `CN1CC(F)(F)C[C@@H]1CNC(=O)C1(c2ccc(-c3cccn3C)nc2)CCN(c2ccc(C(F)(F)F)cc2C#N)CC1` [Compound 1-280, 1-[2-cyano-4-(trifluoromethyl)phenyl]-N-{[(2R)-4,4-difluoro-1-methylpyrrolidin-2-yl]methyl}-4-[6-(1-methyl-1H-pyrrol-2-yl)pyridin-3-yl]piperidine-4-carboxamide] the Ki was 100 to 1000 nM.
With `COc1ncccc1-c1ccc(C2(C(=O)NCCN(C)C)CCN(c3ccc(C(F)(F)F)cc3F)CC2)cn1` [Compound 1-271, N-[2-(dimethylamino)ethyl]-1-[2-fluoro-4-(trifluoromethyl)phenyl]-4-{2′-methoxy-[2,3′-bipyridin]-5-yl}piperidine-4-carboxamide] the Ki was under 10 nM.
Compound `CCOc1ncccc1-c1ccc(C2(C(=O)N[C@H]3CCN(C)C3)CCN(c3ccccc3C#N)CC2)cn1` [Compound 1-32, 1-(2-cyanophenyl)-4-{2′-ethoxy-[2,3′-bipyridin]-5-yl}-N-[(3S)-1-methylpyrrolidin-3-yl]piperidine-4-carboxamide] has a Ki of 10 to 100 nM.
`CCOc1ccccc1-c1ccc(C2(C(=O)N[C@H]3CCN(C)C3)CCN(c3ccc(Cl)cc3Cl)CC2)cn1` [Compound 1-95, 1-(2,4-dichlorophenyl)-4-[6-(2-ethoxyphenyl)pyridin-3-yl]-N-[(3S)-1-methylpyrrolidin-3-yl]piperidine-4-carboxamide] was tested, and the Ki was under 10 nM.
Compound `CCOc1ncccc1-c1ccc(C2(C(=O)NC[C@@H](N)CO)CCN(c3ccc(C(F)(F)F)cc3C#N)CC2)cn1` [Compound 1-17, N-[(2R)-2-amino-3-hydroxypropyl]-1-[2-cyano-4-(trifluoromethyl)phenyl]-4-{2′-ethoxy-[2,3′-bipyridin]-5-yl}piperidine-4-carboxamide] has a Ki of under 10 nM.
`CCCc1ccccc1-c1ccc(C2(C(=O)N[C@@H]3CCN(C)C3)CCN(c3ccc(C(F)(F)F)cc3C#N)CC2)cn1` [Compound 1-117, 1-[2-cyano-4-(trifluoromethyl)phenyl]-N-[(3R)-1-methylpyrrolidin-3-yl]-4-[6-(2-propylphenyl)pyridin-3-yl]piperidine-4-carboxamide] showed a Ki of under 10 nM.
`CCOc1ccccc1-c1ncc(C2(C(=O)NCCN(C)C)CCN(c3ccc(C(F)(F)F)cc3Cl)CC2)cc1F` [Compound 1-291, 1-[2-chloro-4-(trifluoromethyl)phenyl]-N-[2-(dimethylamino)ethyl]-4-[6-(2-ethoxyphenyl)-5-fluoropyridin-3-yl]piperidine-4-carboxamide] showed a Ki of under 10 nM.
`CN(C)CC1(NC(=O)C2(c3ccc(-c4cccn4C)nc3)CCN(c3ccc(C(F)(F)F)cc3C#N)CC2)COC1` [Compound 1-262, 1-[2-cyano-4-(trifluoromethyl)phenyl]-N-{3-[(dimethylamino)methyl]oxetan-3-yl}-4-[6-(1-methyl-1H-pyrrol-2-yl)pyridin-3-yl]piperidine-4-carboxamide] was tested, and the Ki was under 10 nM.
In the case of `CCOc1ncccc1-c1ccc(C2(C(=O)NCCN(C)C)CCN(c3ccc(C(F)(F)F)cc3C#N)CC2)cc1` [Compound 1-8, 1-[2-cyano-4-(trifluoromethyl)phenyl]-N-[2-(dimethylamino)ethyl]-4-[4-(2-ethoxypyridin-3-yl)phenyl]piperidine-4-carboxamide], the Ki is reported as under 10 nM.
`CCOc1ncccc1-c1ccc(C2(C(=O)N[C@H]3CCNC3)CCN(c3ccc(C(F)(F)F)cc3C#N)CC2)cn1` [Compound 1-12, 1-[2-cyano-4-(trifluoromethyl)phenyl]-4-{2′-ethoxy-[2,3′-bipyridin]-5-yl}-N-[(3S)-pyrrolidin-3-yl]piperidine-4-carboxamide] showed a Ki of under 10 nM.
In the case of `CCOc1ccccc1-c1ccc(C2(NC(=O)[C@@H]3CCN(C)C3)CCN(c3ccc(C(F)(F)F)cc3C#N)CC2)cn1` [Compound 2-33, (3R)—N-{1-[2-cyano-4-(trifluoromethyl)phenyl]-4-[6-(2-ethoxyphenyl)pyridin-3-yl]piperidin-4-yl}-1-methylpyrrolidine-3-carboxamide], the Ki is reported as under 10 nM.
`CN1[C@@H]2CC[C@H]1[C@@H](NC(=O)C1(c3ccc(-c4cccn4C)nc3)CCN(c3ccc(C(F)(F)F)cc3C#N)CC1)C2` (racemic) [Compound 1-251, rac-1-[2-cyano-4-(trifluoromethyl)phenyl]-4-[6-(1-methyl-1H-pyrrol-2-yl)pyridin-3-yl]-N-[(1S,2S,4R)-7-methyl-7-azabicyclo[2.2.1]heptan-2-yl]piperidine-4-carboxamide] showed a Ki of 10 to 100 nM.
Compound `CN1CC[C@H](NC(=O)C2(c3ccc(-c4ccc[nH]4)nc3)CCN(c3ccc(C(F)(F)F)cc3C#N)CC2)C1` [Compound 1-143, 1-[2-cyano-4-(trifluoromethyl)phenyl]-N-[(3S)-1-methylpyrrolidin-3-yl]-4-[6-(1H-pyrrol-2-yl)pyridin-3-yl]piperidine-4-carboxamide] has a Ki of under 10 nM.
For `COc1ccccc1-c1ccc(C2(C(=O)NCCN(C)C)CCN(c3ccc(C(F)(F)F)cc3C#N)CC2)cn1` [Compound 1-212, 1-[2-cyano-4-(trifluoromethyl)phenyl]-N-[2-(dimethylamino)ethyl]-4-[6-(2-methoxyphenyl)pyridin-3-yl]piperidine-4-carboxamide], the Ki was under 10 nM.
`CN1CC[C@@H](NC(=O)C2(c3ccc(-c4ccccc4C(F)(F)F)nc3)CCN(c3ccc(C(F)(F)F)cc3C#N)CC2)C1` [Compound 1-77, 1-[2-cyano-4-(trifluoromethyl)phenyl]-N-[(3R)-1-methylpyrrolidin-3-yl]-4-{6-[2-(trifluoromethyl)phenyl]pyridin-3-yl}piperidine-4-carboxamide] showed a Ki of under 10 nM.
`COc1ccccc1-c1ccc(C2(C(=O)NC3CN(C)C3)CCN(c3ccc(C(F)(F)F)cc3C#N)CC2)cn1` [Compound 1-94, 1-[2-cyano-4-(trifluoromethyl)phenyl]-4-[6-(2-methoxyphenyl)pyridin-3-yl]-N-(1-methylazetidin-3-yl)piperidine-4-carboxamide] gave a Ki of under 10 nM.
For `CCOc1ccccc1-c1ccc(C2(C(=O)N[C@H]3CCN(C)C3)CCN(c3ccc(C(F)(F)F)cc3Cl)CC2)nn1` [Compound 1-175, 1-[2-chloro-4-(trifluoromethyl)phenyl]-4-[6-(2-ethoxyphenyl)pyridazin-3-yl]-N-[(3S)-1-methylpyrrolidin-3-yl]piperidine-4-carboxamide], the Ki was under 10 nM.
